# ChEMBL document CHEMBL1201862, “PubChem BioAssay data set” (2004)
# Activity calls are given as the source filed them.
# Key:
# [1] = molecular target: 72 kDa type IV collagenase (Homo sapiens, UniProt P08253); test: Dose Response validation of uHTS RPN11 inhibitor hits using a MMP-2 Fluorescence assay.; assay type: functional
# [2] = molecular target: 26S proteasome non-ATPase regulatory subunit 14 (Homo sapiens, UniProt O00487); test: inhibition of proteasome subunit RPN11 – biochemical, fluorescence polarization, uHTS hits, confirmation (AID 602368); assay type: functional
# [3] = molecular target: Prothrombin (Bos taurus, UniProt P00735); test: thrombin protease inhibitors – biochemical, fluorescence polarization, uHTS hits, dose response (AID 602369); assay type: functional
# [4] = molecular target: Beta Lactamase (Pseudomonas aeruginosa, UniProt Q932Y6); test: BLA reporter interference, concentration series – BLA reporter cells, FRET fluorescence, artefact control for NOD2-RIPK2 interaction inhibitor project, dose response (AID 651552); assay type: functional, cell-based
# [5] = Fluorescence-based cell-based high throughput dose response assay for inhibitors of the interaction of nucleotide-binding oligomerization domain containing 2 (NOD2) and the receptor-interacting serine-threonine kinase 2 (RIPK2).; assay type: functional; details: Homo sapiens
# [6] = molecular target: T1, Long-chain-fatty-acid--AMP ligase FadD28 (Mycobacterium tuberculosis, UniProt P9WQ59); test: Fluorescence polarization aasay to screen for inhibitors that compete for the binding of FadD28 to a bisubstrate Measured in Biochemical System Using Plate Reader - 2147-01_Inhibitor_Dose_CherryPick_Activity.; assay type: functional, Mycobacterium tuberculosis H37Rv
# T1 sequence (P9WQ59 whole entry): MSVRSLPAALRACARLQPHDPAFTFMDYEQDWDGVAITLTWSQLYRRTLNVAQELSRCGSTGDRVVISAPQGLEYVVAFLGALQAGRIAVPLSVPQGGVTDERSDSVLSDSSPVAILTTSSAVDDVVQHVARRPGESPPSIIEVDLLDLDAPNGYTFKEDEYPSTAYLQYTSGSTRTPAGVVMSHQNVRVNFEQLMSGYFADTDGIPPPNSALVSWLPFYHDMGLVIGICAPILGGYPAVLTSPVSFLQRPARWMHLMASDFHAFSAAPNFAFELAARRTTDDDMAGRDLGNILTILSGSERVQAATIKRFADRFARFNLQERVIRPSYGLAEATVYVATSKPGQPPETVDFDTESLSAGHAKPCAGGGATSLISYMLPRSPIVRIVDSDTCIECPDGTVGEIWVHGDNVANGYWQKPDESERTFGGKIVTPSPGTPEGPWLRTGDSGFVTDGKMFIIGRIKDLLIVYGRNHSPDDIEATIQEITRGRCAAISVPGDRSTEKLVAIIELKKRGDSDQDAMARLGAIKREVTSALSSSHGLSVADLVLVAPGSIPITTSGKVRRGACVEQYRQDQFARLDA
# [7] = molecular target: DNA (cytosine-5)-methyltransferase 1 (Homo sapiens, UniProt P26358); test: inhibition of DNA methylation by DNMT1 – biochemical, fluorescent molecular beacon, confirmation (AID 602386); assay type: functional
# [8] = molecular target: T2, Adenosylmethionine-8-amino-7-oxononanoate aminotransferase (Mycobacterium tuberculosis, UniProt P9WQ81); test: Mycobacterium tuberculosis BioA enzyme inhibitor Measured in Biochemical System Using Plate Reader - 2163-02_Inhibitor_Dose_CherryPick_Activity.; assay type: functional, Mycobacterium tuberculosis UT205
# T2 sequence (P9WQ81 whole entry): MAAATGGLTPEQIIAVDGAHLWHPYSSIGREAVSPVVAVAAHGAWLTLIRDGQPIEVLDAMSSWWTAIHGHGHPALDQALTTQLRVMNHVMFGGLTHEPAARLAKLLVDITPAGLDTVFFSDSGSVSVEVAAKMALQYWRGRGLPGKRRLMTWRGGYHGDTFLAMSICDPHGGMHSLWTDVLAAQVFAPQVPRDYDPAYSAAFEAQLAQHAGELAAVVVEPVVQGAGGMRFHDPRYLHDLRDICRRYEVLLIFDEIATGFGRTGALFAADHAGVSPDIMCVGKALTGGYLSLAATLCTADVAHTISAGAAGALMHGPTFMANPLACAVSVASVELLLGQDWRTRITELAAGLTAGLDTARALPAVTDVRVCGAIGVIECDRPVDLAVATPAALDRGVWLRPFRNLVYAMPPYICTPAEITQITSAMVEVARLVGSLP
# [9] = molecular target: T3, Low molecular weight phosphotyrosine protein phosphatase (Homo sapiens, UniProt P24666); assay type: functional; details: read-out: IC50_Mean;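 further: Dose-response confirmation assay measuring inhibition of LMPTP enzyme activity by fluorescence intensity read-out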
# T3 sequence (P24666 whole entry): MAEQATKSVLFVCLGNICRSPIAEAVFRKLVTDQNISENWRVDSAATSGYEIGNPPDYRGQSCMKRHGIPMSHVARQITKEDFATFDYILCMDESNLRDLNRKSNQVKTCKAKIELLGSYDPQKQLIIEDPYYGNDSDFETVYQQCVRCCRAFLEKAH
# [10] = molecular target: T4, Carboxy-terminal domain RNA polymerase II polypeptide A small phosphatase 1 (Homo sapiens, UniProt Q9GZU7); test: CTDSP1 inhibitors, concentration-response, biochemical, absorbance readout, ultra-high-throughput screen actives (AID 540297); assay type: functional
# T4 sequence (Q9GZU7 whole entry): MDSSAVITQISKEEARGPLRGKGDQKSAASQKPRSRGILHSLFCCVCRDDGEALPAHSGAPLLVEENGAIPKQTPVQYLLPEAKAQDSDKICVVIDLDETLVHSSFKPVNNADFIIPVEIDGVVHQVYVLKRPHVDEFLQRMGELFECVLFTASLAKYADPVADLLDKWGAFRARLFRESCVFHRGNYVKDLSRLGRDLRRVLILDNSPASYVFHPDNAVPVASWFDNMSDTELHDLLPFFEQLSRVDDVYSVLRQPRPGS
# [11] = molecular target: T5, Caspase-3 (Homo sapiens, UniProt P42574); assay type: functional;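 further: Dose-response selectivity test against caspase-3 for candidate inhibitors of sentrin-specific proteases (SENPs)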
# T5 sequence (P42574 whole entry): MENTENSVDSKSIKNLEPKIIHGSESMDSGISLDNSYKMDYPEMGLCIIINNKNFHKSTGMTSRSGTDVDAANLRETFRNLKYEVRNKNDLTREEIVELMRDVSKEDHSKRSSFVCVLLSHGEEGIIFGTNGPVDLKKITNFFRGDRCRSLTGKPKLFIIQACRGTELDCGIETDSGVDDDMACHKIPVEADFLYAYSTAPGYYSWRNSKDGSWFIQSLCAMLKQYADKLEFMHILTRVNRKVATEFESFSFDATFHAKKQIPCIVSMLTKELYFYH
# [12] = molecular target: T6, Sentrin-specific protease 7 (Homo sapiens, UniProt Q9BQF6); assay type: functional;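 further: Luminescence-based dose-response confirmation of ultra-high-throughput screening hits, measuring inhibition of SENP7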
# T6 sequence (Q9BQF6 whole entry): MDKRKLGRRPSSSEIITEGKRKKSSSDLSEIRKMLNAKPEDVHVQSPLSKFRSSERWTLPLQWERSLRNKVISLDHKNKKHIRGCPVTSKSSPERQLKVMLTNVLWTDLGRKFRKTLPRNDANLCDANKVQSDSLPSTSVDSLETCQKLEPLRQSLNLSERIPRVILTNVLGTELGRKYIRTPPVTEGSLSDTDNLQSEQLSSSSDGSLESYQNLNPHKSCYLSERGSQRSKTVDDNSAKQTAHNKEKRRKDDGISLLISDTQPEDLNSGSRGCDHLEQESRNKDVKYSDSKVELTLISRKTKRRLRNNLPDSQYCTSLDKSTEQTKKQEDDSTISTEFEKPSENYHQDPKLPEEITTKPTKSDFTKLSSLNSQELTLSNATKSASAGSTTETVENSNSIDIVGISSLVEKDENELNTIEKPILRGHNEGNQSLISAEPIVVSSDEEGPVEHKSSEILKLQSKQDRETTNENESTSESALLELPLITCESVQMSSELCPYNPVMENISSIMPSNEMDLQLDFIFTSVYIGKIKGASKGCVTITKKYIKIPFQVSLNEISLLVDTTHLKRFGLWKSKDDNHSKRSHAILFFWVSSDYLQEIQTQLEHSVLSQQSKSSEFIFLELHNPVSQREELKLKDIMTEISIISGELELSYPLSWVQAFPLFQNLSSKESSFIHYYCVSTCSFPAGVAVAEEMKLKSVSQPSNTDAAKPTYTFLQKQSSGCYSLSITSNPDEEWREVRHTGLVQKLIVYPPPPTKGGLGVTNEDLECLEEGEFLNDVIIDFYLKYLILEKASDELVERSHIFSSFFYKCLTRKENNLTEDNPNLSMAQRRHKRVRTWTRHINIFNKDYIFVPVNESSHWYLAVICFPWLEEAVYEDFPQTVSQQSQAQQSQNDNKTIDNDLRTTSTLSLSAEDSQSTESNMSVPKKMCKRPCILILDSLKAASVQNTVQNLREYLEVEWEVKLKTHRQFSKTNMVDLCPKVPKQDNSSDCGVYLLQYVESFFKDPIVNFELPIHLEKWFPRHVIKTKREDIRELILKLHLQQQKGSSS
# [13] = molecular target: T7, Sentrin-specific protease 8 (Homo sapiens, UniProt Q96LD8); assay type: functional;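 further: luminescence read-out of SENP8 inhibition, dose-response confirmation following an ultra-high-throughput screen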
# T7 sequence (Q96LD8 whole entry): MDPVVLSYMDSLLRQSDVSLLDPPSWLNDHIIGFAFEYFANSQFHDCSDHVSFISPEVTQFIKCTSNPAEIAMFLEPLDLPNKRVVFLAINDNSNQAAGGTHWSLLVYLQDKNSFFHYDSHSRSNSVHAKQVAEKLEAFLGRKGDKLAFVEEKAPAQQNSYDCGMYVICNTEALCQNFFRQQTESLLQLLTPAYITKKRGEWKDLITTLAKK
# [14] = molecular target: T8, Sentrin-specific protease 6 (Homo sapiens, UniProt Q9GZR1); assay type: functional;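 further: Luminescence-based dose-response confirmatory assay of SENP6 inhibition, following up an ultra-high-throughput screen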
# T8 sequence (Q9GZR1 whole entry): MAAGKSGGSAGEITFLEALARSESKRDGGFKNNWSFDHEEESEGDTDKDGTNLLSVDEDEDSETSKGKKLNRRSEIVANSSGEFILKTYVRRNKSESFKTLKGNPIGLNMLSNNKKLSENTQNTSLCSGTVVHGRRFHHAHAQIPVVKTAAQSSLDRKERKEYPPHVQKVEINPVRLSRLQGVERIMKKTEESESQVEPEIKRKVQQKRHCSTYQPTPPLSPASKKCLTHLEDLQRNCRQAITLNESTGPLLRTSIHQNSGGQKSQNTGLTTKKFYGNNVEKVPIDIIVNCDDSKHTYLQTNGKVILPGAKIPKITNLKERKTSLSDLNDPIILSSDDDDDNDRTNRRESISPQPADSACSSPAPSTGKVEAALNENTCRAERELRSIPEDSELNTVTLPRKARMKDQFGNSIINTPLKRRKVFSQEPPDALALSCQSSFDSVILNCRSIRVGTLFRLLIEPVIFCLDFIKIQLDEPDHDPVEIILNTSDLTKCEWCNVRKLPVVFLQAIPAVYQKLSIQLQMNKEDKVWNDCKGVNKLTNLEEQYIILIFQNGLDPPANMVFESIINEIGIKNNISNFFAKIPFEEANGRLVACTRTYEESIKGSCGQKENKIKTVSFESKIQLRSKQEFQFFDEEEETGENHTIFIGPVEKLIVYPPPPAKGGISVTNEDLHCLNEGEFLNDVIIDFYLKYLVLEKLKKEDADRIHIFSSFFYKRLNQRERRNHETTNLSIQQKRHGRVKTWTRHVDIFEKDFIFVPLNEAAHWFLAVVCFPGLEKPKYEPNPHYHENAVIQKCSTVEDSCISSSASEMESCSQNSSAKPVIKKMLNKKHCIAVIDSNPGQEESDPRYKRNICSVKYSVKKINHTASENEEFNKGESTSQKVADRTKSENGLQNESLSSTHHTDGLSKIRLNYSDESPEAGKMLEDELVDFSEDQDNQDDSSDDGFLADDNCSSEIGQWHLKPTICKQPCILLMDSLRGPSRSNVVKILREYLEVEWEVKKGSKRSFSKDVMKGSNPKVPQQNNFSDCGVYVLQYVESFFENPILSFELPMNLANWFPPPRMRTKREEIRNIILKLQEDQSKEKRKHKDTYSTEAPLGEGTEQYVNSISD
# [15] = Trypanosoma cruzi growth suppression in host cells – NIH3T3 host cells, beta-gal luminescence, confirmation (AID 2044); assay type: functional, cell-based;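 further: intracellular parasites grown in NIH/3T3 mouse fibroblasts as host cells; luminescent beta-galactosidase reporter signal from transgenic T. cruzi replicating inside host cells; inhibitors lower the luminescence signal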
# [16] = NIH3T3 cell viability loss – ATP luminescence, mouse fibroblasts, counter-screen, dose response (AID 2010); assay type: functional, cell-based;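 further: cells exposed to compound for about 90 hours before reading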
# Sequence of 72 kDa type IV collagenase (P08253 whole entry): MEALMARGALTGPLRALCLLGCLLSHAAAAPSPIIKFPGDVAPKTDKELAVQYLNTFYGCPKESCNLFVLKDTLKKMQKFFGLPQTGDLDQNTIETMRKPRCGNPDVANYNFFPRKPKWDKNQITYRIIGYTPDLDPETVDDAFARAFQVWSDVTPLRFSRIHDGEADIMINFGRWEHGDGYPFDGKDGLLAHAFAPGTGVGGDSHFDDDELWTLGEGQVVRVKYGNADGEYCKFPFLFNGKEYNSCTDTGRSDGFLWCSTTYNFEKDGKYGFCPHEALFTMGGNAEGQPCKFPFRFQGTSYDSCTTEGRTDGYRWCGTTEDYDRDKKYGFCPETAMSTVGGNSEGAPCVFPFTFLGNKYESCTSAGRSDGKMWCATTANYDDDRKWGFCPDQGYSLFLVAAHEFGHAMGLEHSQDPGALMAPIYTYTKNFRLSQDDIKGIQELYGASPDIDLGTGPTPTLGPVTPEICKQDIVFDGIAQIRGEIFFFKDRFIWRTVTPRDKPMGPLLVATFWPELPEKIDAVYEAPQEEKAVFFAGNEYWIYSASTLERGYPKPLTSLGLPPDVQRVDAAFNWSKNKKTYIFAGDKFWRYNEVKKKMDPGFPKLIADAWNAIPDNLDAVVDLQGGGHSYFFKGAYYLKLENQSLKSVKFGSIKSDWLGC
# Sequence of 26S proteasome non-ATPase regulatory subunit 14 (O00487 whole entry): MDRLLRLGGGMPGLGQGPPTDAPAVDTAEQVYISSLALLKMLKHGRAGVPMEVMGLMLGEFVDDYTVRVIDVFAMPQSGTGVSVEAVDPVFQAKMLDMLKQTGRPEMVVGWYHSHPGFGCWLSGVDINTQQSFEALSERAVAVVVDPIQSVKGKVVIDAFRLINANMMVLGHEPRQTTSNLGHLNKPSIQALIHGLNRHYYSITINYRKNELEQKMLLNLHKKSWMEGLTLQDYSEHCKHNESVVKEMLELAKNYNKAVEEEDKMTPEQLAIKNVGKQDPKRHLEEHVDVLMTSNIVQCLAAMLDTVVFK
# Sequence of DNA (cytosine-5)-methyltransferase 1 (P26358 whole entry): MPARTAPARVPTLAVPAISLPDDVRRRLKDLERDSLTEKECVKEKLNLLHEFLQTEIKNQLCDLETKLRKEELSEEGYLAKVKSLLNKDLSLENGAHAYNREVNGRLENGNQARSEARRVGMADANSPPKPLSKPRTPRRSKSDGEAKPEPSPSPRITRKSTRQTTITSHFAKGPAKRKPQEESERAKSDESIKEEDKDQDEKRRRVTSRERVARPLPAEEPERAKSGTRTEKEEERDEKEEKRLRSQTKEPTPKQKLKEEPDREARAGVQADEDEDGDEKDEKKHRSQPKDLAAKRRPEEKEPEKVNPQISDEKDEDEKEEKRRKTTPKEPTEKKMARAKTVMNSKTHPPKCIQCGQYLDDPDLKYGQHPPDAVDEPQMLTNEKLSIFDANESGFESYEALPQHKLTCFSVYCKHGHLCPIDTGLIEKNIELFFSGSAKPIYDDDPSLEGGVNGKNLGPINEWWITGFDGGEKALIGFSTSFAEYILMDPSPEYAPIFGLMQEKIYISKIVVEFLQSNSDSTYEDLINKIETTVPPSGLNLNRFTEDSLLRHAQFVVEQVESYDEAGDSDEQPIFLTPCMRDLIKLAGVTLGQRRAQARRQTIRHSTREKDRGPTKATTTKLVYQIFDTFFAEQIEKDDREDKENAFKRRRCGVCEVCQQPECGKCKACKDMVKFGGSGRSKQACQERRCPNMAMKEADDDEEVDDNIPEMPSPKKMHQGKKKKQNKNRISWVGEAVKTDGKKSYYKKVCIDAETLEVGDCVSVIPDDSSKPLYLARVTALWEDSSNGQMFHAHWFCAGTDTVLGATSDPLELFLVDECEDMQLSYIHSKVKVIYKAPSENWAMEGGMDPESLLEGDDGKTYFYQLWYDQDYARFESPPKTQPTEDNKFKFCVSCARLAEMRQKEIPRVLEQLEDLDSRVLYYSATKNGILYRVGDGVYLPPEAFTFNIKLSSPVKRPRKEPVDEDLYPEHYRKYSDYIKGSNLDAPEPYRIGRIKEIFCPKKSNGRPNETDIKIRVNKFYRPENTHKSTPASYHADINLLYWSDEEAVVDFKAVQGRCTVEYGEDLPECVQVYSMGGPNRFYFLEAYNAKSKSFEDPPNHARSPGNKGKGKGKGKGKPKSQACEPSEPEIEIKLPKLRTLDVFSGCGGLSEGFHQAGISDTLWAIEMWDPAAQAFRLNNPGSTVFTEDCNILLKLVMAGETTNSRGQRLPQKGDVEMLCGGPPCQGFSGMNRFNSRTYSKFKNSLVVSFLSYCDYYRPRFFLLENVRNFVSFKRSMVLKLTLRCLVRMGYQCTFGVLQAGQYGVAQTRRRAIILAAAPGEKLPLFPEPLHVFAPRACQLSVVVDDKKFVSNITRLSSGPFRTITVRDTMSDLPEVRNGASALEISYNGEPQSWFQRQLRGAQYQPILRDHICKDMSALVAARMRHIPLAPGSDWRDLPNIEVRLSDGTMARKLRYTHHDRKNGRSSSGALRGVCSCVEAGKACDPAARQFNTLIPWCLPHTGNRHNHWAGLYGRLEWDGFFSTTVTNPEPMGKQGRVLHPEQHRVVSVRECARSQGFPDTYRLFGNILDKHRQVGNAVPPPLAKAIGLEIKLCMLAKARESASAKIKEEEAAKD
# Sequence of Beta Lactamase (Q932Y6 whole entry, the tested form may be a part): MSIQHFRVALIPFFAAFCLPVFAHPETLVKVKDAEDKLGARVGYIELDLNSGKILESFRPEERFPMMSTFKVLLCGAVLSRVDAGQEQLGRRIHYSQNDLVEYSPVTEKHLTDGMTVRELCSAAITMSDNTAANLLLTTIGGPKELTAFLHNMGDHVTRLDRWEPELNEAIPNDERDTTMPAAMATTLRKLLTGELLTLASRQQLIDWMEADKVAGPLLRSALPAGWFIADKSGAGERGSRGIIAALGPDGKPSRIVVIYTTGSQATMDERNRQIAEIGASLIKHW
compound,measurement,setting,value
C=CCn1cc(/C=N/NC(=O)COc2cccc3cccnc23)c2ccccc21,IC50,[1],> 100 µM (inactive)
same,IC50,[2],27.8 µM (active)
same,IC50,[3],39 µM (active)
Cc1ccsc1/C=N/n1c(S)nnc1-c1cc(-c2ccccc2)[nH]n1,IC50,[1],> 100 µM (inactive)
same,IC50,[2],21.1 µM (active)
same,IC50,[3],77.2 µM (active)
O=C(CN1CCN(S(=O)(=O)c2ccc(Br)cc2)CC1)N/N=C/c1ccc(Cl)c([N+](=O)[O-])c1,IC50,[4],48.7 µM (inactive)
same,IC50,[5],1.83 µM (active)
O=C(O)C(c1ccccc1)N1C(=O)/C(=C\c2ccc(-c3ccccc3Cl)o2)SC1=S (stereo not given),AC50,[6],15.6 µM (active)
same,IC50,[7],4.27 µM (active)
O=C(Nc1ncc2c(n1)CC(c1ccccc1)CC2=O)c1ccco1 (stereo not given),AC50,[8],0.201 µM (active)
O=C(NCc1cccc(CNC(=O)C(=O)NCc2ccco2)c1)C(=O)NCc1ccco1,IC50,[9],6.32 µM (active)
same,IC50,[10],> 80 µM (inactive)
CCOC(=O)c1ccc(Nc2cnc3ccccc3n2)cc1,IC50,[11],64.6 µM (active)
same,IC50,[12],6.72 µM (active)
same,IC50,[13],> 100 µM (inactive)
same,IC50,[14],> 100 µM (inactive)
N=C(N)NCCCS(=O)(=O)Nc1ccc(Nc2c3ccccc3nc3cc([N+](=O)[O-])ccc23)cc1,IC50,[9],57 µM (inactive)
same,IC50,[7],6.83 µM (active)
O=C(Nc1ccc(Cl)c(-c2nc3ccccc3[nH]2)c1)c1cccnc1,AC50,[8],0.788 µM (active)
COc1cc(-c2nnc(S)n2-c2cccc(C(F)(F)F)c2)cc(OC)c1OC,AC50,[8],10.6 µM (active)
C/N=c1\scc(-c2cc(OC)ccc2OC)n1/N=C/c1c(C)[nH]c2ccccc12,IC50,[1],> 100 µM (inactive)
same,IC50,[2],23.8 µM (active)
same,IC50,[3],21.1 µM (active)
same,EC50,[15],1.64 µM (active)
same,EC50,[16],> 60 µM (not active)
O=[N+]([O-])c1ccc(N/N=N/c2ccccc2)cc1,IC50,[11],45 µM (active)
same,IC50,[12],9.64 µM (active)
same,IC50,[13],75.3 µM (active)
same,IC50,[14],46.5 µM (active)
